In ChEMBL document CHEMBL1201862, “PubChem BioAssay data set” (2004):
Activity calls are given as the source filed them.

How the values were obtained:
[1] = target: Eukaryotic translation initiation factor 4E (Mus musculus, UniProt P63073); assay: blockers of eIF4G binding by eIF4E – biochemical, TR-FRET, dose response (AID 855); type: functional;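 further: potency for disrupting eIF4E binding to eIF4GI seen as loss of FRET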
[2] = target: T1, Voltage-gated N-type calcium channel alpha-1B subunit/Amyloid beta A4 precursor protein-binding family A member 1 (Homo sapiens, UniProt Q00975+Q02410); type: protein assay
[3] = target: T1, Voltage-gated N-type calcium channel alpha-1B subunit/Amyloid beta A4 precursor protein-binding family A member 1; type: protein assay; remark: listed apart in the source
[4] = target: T2, Eukaryotic translation initiation factor 2-alpha kinase 3 (Homo sapiens, UniProt Q9NZJ5); assay: Dose response cell-based high-throughput screening assay to measure PERK inhibition. [Related pubchem assays: 1416 ]; type: functional
T2 sequence (Q9NZJ5 whole entry): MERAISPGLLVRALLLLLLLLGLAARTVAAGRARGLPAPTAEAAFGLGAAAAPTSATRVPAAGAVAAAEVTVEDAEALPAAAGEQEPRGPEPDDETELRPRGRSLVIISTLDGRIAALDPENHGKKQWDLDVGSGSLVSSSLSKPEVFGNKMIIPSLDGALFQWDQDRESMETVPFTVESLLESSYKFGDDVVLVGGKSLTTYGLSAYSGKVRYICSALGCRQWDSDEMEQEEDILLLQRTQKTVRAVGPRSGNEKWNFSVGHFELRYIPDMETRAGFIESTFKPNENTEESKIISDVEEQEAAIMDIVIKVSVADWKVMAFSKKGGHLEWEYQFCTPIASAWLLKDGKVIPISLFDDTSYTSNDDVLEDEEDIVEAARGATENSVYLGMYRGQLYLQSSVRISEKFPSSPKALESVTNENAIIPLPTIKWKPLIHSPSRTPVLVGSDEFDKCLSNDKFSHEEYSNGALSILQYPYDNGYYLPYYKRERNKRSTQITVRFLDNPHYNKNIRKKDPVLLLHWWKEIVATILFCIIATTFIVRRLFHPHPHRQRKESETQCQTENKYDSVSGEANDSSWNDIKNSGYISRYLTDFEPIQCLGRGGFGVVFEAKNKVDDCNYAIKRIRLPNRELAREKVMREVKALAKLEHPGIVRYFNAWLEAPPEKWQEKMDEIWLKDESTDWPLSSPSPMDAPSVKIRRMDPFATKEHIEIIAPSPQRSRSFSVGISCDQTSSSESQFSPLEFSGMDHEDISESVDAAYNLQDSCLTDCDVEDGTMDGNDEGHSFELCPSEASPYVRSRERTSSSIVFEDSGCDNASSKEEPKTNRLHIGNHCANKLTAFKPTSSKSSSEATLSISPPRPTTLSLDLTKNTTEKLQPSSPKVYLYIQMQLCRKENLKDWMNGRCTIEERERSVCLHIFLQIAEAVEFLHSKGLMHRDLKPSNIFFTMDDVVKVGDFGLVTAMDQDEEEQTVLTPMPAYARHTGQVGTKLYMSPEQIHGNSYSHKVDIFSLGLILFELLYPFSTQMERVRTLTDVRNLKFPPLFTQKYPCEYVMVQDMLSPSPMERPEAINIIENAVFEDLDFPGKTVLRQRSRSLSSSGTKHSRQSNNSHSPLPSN

[5] = target: T2, Eukaryotic translation initiation factor 2-alpha kinase 3; assay: Counterscreen assay for PERK inhibitors: Dose response cell-based high throughput screening assay to measure inhibition of PERK at 6 hours. [Related pubchem assays: 1522, 1416 ]; type: functional
HEK293 [6] = assay: inhibition of NOD1-driven NF-kB reporter – cell-based, luminescence, uHTS, primary screen (AID 1578); type: functional; settings: Homo sapiens
HEK293 [7] = assay: cells; type: functional, cell-based; settings: Homo sapiens
HEK293 [8] = assay: cells; type: functional, cell-based; settings: Homo sapiens; remark: listed apart in the source
HEK293 [9] = assay: cells; type: functional, cell-based; settings: Homo sapiens; remark: listed apart in the source
HEK293 [10] = assay: NOD2 signaling inhibitors in MDP-stimulated cells, cell-based, uHTS, luminescence (AID 2001); type: functional; settings: Homo sapiens
A-375 = assay: MITF: Counter assay: A375 proliferation Measured in Cell-Based System Using Plate Reader - 2084-03_Inhibitor_Dose_DryPowder_Activity. [Related pubchem assays (depositor defined):AID488944]; type: functional; settings: Homo sapiens
Vero [11] = assay: cells; type: functional, cell-based; settings: Chlorocebus sabaeus
[12] = target: Nucleotide-binding oligomerization domain-containing protein 2 (Homo sapiens, UniProt Q9HC29); assay: inhibition of NOD2-driven NF-kB reporter – cell-based, luminescence, uHTS, HEK293 (AID 1566); type: functional
Vero [13] = assay: cells; type: functional; settings: Chlorocebus sabaeus
[14] = target: T3, Microphthalmia-associated transcription factor (Homo sapiens, UniProt O75030); assay: reducers of TRPM1 reporter luminescence, concentration series – cell-based, SK-MEL-5, cherry-picked, set 3, MITF inhibitor project, dose response (AID 493073); type: functional;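 further: SK-MEL-5 melanoma cells with luciferase driven by the MITF target TRPM1 promoter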
T3 sequence (O75030 whole entry): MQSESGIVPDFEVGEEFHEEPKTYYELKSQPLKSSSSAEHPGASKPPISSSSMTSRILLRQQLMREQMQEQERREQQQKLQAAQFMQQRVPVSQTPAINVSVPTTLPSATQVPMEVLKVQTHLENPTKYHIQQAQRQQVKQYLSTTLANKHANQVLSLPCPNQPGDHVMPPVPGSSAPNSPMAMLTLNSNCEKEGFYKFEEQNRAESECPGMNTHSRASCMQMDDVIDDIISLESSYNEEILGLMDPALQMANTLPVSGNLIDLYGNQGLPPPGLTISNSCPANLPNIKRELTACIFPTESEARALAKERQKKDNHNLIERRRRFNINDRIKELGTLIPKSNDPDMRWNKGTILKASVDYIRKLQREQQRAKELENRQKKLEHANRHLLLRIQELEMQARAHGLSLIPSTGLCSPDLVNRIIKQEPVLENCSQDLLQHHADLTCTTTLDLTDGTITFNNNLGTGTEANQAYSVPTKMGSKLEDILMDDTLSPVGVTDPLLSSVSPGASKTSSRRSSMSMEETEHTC

[15] = HEK-293T cell viability reduction – luminescence, B-cell screen hits, cytotoxicity control for BCR NF-kB inhibitor project, dose response (AID 489021); type: functional, cell-based;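 further: HEK-293T cells carrying an NF-kB luciferase reporter; cells exposed to compound for about 14 hours before viability readout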
CAAX prenyl protease 2 = target: T4, CAAX prenyl protease 2 (Saccharomyces cerevisiae S288c, UniProt Q03530); type: biochemical
T4 sequence (Q03530 whole entry): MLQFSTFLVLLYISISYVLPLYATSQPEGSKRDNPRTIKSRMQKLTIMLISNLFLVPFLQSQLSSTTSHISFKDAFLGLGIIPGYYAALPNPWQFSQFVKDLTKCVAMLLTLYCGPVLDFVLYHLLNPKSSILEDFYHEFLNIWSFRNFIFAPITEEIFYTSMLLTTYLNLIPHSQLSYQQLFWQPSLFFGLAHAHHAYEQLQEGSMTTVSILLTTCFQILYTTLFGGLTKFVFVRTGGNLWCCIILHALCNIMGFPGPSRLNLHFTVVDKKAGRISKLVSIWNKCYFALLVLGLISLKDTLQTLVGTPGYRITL

Protein RecA = target: T5, Protein RecA (Mycobacterium tuberculosis, UniProt P9WHJ3); assay: Fluorescence Cell-Free Homogeneous Dose Retest to Identify Inhibitors of RecA-Intein Splicing Activity. [Related pubchem assays (depositor defined):AID2097, AID2223, AID489010, AID492950]; type: functional
T5 sequence (P9WHJ3 whole entry): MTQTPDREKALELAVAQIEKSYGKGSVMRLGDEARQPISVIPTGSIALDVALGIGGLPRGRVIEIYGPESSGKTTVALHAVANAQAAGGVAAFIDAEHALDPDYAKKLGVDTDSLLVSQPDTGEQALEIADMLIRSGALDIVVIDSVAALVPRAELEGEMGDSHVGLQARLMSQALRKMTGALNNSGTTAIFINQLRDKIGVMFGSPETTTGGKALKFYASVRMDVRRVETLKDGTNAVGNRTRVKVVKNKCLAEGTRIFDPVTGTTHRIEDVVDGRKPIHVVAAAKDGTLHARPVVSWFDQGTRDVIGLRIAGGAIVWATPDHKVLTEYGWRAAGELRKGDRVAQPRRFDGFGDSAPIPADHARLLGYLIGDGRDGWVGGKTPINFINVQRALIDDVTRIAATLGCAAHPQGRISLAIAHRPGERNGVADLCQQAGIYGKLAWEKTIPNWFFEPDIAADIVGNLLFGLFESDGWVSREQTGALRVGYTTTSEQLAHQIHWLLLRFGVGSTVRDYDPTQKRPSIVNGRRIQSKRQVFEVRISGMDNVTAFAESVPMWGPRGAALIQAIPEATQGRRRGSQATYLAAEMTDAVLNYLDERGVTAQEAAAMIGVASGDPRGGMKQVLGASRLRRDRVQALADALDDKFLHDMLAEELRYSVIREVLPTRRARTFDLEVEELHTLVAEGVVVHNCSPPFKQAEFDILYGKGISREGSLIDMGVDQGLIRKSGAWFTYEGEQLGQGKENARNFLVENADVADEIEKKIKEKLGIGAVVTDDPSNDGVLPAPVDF

[16] = target: T6, Alkaline phosphatase, tissue-nonspecific isozyme (Homo sapiens, UniProt P05186); assay: potency against alkaline phosphatase TNAP – biochemical, luminescent, dose response, SAR follow-up (AID 1056)
T6 sequence (P05186 whole entry): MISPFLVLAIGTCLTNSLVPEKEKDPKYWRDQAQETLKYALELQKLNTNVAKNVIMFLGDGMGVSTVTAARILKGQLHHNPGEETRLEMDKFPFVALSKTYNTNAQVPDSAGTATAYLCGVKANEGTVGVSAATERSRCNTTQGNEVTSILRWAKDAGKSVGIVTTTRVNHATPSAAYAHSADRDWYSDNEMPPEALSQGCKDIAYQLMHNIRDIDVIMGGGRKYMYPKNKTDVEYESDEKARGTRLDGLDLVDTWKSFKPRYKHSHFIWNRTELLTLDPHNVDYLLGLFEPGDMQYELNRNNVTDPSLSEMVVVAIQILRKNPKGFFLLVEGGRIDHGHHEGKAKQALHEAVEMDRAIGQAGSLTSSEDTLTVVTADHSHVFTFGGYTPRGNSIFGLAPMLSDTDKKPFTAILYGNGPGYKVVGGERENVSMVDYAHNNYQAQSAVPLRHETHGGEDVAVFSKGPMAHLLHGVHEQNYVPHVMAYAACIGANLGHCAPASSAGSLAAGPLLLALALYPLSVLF

[17] = target: T7, Replicative DNA helicase DnaB (Mycobacterium tuberculosis, UniProt P9WMR3); assay: DnaB intein splicing inhibitors, dose response, biochemical, cell-free fluorescence (AID 449749); type: functional
T7 sequence (P9WMR3 whole entry): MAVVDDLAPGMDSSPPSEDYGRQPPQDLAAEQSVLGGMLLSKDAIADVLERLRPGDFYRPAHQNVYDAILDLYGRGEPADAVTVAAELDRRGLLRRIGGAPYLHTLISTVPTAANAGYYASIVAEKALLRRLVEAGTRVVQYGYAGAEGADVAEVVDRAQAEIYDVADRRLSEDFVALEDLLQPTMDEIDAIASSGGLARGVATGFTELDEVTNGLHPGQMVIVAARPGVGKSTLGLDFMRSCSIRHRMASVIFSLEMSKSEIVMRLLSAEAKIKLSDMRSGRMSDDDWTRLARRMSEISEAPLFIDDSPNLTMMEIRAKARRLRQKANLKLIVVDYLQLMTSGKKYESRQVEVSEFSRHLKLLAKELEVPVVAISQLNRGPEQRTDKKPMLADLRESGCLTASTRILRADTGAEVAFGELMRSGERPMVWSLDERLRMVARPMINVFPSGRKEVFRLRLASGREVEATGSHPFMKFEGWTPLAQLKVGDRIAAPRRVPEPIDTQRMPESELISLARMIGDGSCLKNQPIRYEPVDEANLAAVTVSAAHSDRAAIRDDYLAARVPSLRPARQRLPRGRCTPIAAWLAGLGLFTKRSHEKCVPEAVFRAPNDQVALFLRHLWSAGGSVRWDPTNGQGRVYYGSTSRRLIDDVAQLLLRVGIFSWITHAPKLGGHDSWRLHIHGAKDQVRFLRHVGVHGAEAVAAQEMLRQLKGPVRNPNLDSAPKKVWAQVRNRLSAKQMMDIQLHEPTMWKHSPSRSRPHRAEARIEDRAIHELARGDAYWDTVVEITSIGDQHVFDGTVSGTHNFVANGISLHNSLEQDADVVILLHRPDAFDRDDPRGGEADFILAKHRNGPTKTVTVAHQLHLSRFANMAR

[18] = target: Glyceraldehyde-3-phosphate dehydrogenase (Homo sapiens, UniProt P04406)
[19] = target: Alkaline phosphatase, placental type (Homo sapiens, UniProt P05187); assay: human placental alkaline phosphatase inhibition – biochemical, luminescence, confirmation (AID 1512); type: functional
Alkaline phosphatase, placental type, sequence (P05187 whole entry): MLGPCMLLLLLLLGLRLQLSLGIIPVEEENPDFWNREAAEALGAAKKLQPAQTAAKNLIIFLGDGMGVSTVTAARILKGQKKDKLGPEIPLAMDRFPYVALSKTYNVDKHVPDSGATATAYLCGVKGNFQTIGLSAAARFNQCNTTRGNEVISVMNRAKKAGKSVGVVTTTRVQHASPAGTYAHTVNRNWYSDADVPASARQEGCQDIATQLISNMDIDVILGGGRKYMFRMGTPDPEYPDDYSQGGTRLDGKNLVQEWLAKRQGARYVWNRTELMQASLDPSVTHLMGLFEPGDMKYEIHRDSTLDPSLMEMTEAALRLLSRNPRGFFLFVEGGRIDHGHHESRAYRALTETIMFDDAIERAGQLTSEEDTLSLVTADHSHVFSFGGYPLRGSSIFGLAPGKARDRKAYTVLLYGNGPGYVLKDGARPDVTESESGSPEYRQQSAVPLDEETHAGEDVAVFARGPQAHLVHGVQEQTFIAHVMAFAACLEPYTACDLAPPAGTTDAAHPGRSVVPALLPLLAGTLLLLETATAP

T1 sequence (Q00975 whole entry): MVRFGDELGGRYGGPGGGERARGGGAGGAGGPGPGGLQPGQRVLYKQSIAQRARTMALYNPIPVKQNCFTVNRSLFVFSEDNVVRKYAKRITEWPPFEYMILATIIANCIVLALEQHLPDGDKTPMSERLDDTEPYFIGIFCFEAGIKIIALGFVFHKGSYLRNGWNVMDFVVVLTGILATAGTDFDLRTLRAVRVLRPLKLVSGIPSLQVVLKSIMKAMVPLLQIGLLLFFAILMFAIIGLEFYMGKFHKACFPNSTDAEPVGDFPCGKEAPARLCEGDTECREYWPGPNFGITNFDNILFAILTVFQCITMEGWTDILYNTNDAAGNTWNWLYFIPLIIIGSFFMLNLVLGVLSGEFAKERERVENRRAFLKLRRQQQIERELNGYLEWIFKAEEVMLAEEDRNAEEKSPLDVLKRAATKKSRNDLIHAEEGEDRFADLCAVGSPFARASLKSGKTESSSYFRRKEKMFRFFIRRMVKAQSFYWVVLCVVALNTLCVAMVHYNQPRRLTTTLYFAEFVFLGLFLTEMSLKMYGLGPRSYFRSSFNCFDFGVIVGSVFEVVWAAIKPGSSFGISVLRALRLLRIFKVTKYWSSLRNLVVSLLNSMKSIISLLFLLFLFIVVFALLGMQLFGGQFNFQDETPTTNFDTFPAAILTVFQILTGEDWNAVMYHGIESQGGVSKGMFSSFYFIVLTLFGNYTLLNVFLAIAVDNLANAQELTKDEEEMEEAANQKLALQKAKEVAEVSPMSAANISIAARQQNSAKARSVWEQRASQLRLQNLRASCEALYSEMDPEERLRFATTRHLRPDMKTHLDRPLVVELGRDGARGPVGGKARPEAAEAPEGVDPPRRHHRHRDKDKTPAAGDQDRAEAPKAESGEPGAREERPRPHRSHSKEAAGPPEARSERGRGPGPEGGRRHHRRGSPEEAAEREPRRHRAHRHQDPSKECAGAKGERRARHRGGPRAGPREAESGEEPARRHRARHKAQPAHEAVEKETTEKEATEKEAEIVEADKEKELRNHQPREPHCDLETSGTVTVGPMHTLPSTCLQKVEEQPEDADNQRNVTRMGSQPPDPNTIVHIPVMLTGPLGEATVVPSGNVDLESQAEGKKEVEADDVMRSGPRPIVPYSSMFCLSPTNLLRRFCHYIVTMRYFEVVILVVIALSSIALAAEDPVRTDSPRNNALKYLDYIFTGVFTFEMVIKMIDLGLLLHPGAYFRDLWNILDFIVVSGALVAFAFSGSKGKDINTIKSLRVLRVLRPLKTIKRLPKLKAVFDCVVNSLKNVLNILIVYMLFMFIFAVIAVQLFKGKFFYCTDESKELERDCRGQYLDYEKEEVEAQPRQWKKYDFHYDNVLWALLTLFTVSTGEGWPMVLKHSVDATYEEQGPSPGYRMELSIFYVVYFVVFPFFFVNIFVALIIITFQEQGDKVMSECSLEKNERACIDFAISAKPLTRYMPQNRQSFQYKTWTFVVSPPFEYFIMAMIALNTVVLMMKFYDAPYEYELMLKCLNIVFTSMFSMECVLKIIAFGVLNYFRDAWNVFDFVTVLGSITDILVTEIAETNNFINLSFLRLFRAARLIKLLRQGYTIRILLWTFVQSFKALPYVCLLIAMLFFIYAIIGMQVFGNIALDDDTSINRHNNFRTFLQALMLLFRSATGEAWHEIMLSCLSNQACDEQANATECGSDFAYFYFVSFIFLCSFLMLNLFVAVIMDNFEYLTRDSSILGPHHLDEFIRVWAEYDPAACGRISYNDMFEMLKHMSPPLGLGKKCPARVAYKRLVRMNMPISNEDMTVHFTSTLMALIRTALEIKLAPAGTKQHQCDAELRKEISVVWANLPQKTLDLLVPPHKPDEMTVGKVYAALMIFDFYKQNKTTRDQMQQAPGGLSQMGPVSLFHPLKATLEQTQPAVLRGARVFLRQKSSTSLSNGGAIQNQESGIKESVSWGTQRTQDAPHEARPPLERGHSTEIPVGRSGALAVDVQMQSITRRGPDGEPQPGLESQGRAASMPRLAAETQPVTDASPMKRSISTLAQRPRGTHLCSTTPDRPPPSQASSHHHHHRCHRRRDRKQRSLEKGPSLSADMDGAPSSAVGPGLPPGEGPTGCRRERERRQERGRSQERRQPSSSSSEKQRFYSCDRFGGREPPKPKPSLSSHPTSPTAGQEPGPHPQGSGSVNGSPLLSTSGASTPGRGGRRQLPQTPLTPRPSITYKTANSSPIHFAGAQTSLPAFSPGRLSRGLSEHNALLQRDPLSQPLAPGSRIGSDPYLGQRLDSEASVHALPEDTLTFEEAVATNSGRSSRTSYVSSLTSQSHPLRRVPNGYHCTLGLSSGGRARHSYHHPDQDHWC
T1 sequence (Q02410 whole entry): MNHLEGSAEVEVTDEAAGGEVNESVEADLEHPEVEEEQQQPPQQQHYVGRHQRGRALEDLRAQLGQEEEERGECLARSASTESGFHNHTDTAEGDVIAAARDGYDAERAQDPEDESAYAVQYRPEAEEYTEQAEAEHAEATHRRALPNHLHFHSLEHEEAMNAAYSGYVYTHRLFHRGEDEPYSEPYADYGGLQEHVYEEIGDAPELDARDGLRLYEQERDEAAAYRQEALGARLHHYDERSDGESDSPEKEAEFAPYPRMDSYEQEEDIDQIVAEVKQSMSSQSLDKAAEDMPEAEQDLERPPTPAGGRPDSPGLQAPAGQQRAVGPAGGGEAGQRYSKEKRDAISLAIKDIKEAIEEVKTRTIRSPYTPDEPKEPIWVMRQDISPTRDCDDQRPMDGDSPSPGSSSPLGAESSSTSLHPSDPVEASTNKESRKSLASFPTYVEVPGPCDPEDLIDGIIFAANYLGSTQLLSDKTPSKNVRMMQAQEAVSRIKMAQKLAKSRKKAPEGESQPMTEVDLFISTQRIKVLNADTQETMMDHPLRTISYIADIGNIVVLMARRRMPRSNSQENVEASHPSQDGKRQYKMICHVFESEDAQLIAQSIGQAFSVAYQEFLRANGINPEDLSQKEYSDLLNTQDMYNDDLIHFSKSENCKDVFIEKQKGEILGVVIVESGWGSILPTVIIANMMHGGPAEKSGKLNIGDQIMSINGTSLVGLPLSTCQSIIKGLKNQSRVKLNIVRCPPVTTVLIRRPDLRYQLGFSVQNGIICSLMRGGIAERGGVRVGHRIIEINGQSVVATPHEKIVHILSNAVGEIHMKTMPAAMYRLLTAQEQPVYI
Glyceraldehyde-3-phosphate dehydrogenase, sequence (P04406 whole entry): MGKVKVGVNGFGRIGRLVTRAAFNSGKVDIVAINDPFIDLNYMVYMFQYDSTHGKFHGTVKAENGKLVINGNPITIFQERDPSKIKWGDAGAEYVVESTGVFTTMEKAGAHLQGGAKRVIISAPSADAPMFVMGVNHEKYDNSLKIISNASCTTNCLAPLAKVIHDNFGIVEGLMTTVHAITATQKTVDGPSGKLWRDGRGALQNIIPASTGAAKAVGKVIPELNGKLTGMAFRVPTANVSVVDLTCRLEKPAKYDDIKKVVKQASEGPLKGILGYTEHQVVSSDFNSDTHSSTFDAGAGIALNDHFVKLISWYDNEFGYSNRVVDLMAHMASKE
Eukaryotic translation initiation factor 4E, sequence (P63073 whole entry): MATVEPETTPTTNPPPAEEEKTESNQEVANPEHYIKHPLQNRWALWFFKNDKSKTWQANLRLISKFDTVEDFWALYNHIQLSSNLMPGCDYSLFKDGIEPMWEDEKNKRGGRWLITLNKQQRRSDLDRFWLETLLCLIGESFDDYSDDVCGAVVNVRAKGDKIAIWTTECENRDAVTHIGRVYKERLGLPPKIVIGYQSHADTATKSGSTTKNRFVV

SMILES: O=C(NC1CCCCC1)C1CCN(c2cnccn2)CC1
- IC50 [1]: > 64 µM (inactive)

SMILES: Cc1cc(C)c2c(=O)n(CC(=O)N3CCC(Cc4ccccc4)CC3)sc2n1
- IC50 [2]: 15.5 µM (active)
- IC50 [3]: > 50 µM (inactive)

SMILES: COc1ccc2c3c([nH]c2c1)C1CC2C(CC(O)C(OC)C2CO)CN1CC3 (stereo not given)
- EC50 [4]: > 55.7 µM (not active)
- EC50 [5]: > 55.7 µM (not active)

SMILES: CC1CCCCC1NC(=O)/C(C#N)=C/C=C/c1ccccc1[N+](=O)[O-] (stereo not given)
- EC50 (HEK293 [6]): > 20 µM (inactive)
- IC50 (HEK293 [7]): > 20 µM (inactive)
- IC50 (HEK293 [8]): 3.59 µM (active)
- IC50 (HEK293 [9]): > 20 µM (inactive)
- IC50 (HEK293 [10]): 4.85 µM (inactive)
- AC50 (A-375): 31.9 µM (active)
- IC50 (Vero [11]): 13.3 µM (active)
- EC50 [12]: > 20 µM (inactive)
- CC50 (Vero [13]): 15.6 µM (active)
- AC50 [14]: 7.92 µM (active)

SMILES: CN1C(=O)C(Cl)(Cl)C(=O)c2ccccc21
- IC50 [2]: 34.5 µM (active)
- IC50 [3]: 2.75 µM (active)

SMILES: CC(C)c1ccc(/C=C2\SC(=S)N(CCC(=O)NCCCn3ccnc3)C2=O)cc1
- IC50 [15]: > 80 µM (inactive)
- AC50 (CAAX prenyl protease 2): > 100 µM (inactive)

SMILES: CCCc1c(O)oc2nnc(C)c-2c1C
- EC50 (Protein RecA): 14.8 µM (active)
- IC50 [16]: > 100 µM (inactive)
- AC50 [17]: 23.6 µM (active)
- IC50 [18]: > 100 µM (not active)
- IC50 [19]: > 100 µM (inactive)

SMILES: CC1CCCCN1C(=O)Cn1c(=O)n(-c2ccc(F)cc2)c(=O)c2sccc21 (stereo not given)
- IC50 [1]: 50 µM (inactive)

SMILES: CC(C)c1nc(N)nn1-c1ccccc1
- IC50 [16]: > 100 µM (inactive)
- IC50 [18]: > 100 µM (not active)
- IC50 [19]: > 100 µM (inactive)

SMILES: O=C(CNc1ccncc1)c1ccc(O)c(O)c1
- IC50 [16]: > 100 µM (inactive)
- IC50 [19]: > 100 µM (inactive)
